According to PubChem BioAssay (NCI):
Several values for one entry are separate records, joined by “and”; a condition that tells them apart may be missing. Equal entries are not always repeated.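 Briefly, cells in 96-well plates were exposed to five compound concentrations for 48 h, and endpoints were estimated by linear interpolation. The concentration for 50% growth inhibition is given as GI50. Definition used: TGI = concentration required for complete inhibition of growth.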

Columns and labels:
Test in all cases: DTP human tumour cell line panel, 48 h
[1] = tested on: DMS 114 small cell lung
[2] = tested on: DMS 273 small cell lung
[3] = tested on: KM12 colon
[4] = tested on: OVCAR-3 ovarian
[5] = tested on: OVCAR-5 ovarian
[6] = tested on: SF-295 CNS
[7] = tested on: DU-145 prostate
[8] = tested on: HS 578T breast
[9] = tested on: MDA-MB-435
[10] = tested on: NCI/ADR-RES ovarian

CN(C)C=Nc1ccn(CCO)c(=O)n1
TGI [1]: > 100 µM
TGI [2]: > 100 µM
TGI [3]: > 100 µM
TGI [4]: > 100 µM
TGI [5]: > 100 µM

Cn1cc(C(=O)c2ccccc2)c2ccccc2c1=O
TGI [1]: > 100 µM
TGI [2]: > 100 µM
TGI [3]: > 100 µM
TGI [4]: > 100 µM
TGI [6]: > 100 µM

Nc1ncnc2c1ncn2[C@]1(CO)C=C(CO)C(O)C1O (some centres undefined)
TGI [1]: > 100 µM
TGI [2]: > 100 µM
TGI [3]: > 100 µM
TGI [5]: > 100 µM
TGI [6]: > 100 µM

COc1ccc(C2=C(Cl)c3cc(OC)c(OC)cc3C2OC)cc1OC (centres undefined)
TGI [1]: > 100 µM
TGI [2]: > 100 µM
TGI [3]: > 100 µM
TGI [5]: > 100 µM
TGI [6]: > 100 µM

Cn1c2c(c3ccccc31)CCN(CCCCN1CCCCC1)C2=O
TGI [2]: > 100 µM
TGI [4]: > 100 µM
TGI [5]: > 100 µM
TGI [6]: > 100 µM

COc1cc2c(cc1OC)[C@@H](Nc1ccc(C#N)cc1)C1COC(=O)[C@@H]1C2c1cc(OC)c(O)c(OC)c1 (some centres undefined)
TGI [2]: 1.9 µM
TGI [7]: > 100 µM
TGI [8]: 7.54 µM
GI50 [3]: 1.43 µM
TGI [9]: > 100 µM
TGI [10]: > 100 µM
GI50 [4]: 3.26 µM and 5.65 µM
TGI [4]: 20 µM and 28.4 µM
GI50 [5]: 0.545 µM and 2.05 µM
TGI [5]: 95 µM and > 100 µM
TGI [6]: 2 µM and 3.21 µM

N#CCCN(c1ccc(C=Nc2ccccc2)cc1)S(=O)(=O)c1ccccc1
TGI [1]: > 100 µM
TGI [2]: > 100 µM
TGI [3]: > 100 µM
TGI [4]: > 100 µM
TGI [6]: > 100 µM

O=C(NCCCCCCCCCCCCNC(=O)c1cccc2ccccc12)c1cccc2ccccc12
TGI [1]: > 100 µM
TGI [2]: > 100 µM
TGI [3]: > 100 µM
TGI [4]: > 67.6 µM
TGI [5]: > 100 µM
TGI [6]: > 83 µM

CN(CCN1C(=O)c2cc([N+](=O)[O-])cc3cc([N+](=O)[O-])cc(c23)C1=O)CCN1C(=O)c2cc([N+](=O)[O-])cc3cc([N+](=O)[O-])cc(c23)C1=O
TGI [1]: 46.9 µM
TGI [2]: 18.4 µM
TGI [3]: > 35 µM
TGI [4]: > 28 µM
TGI [5]: > 45.6 µM
TGI [6]: > 100 µM

c1ccc([P+](CCSCCSCC[P+](c2ccccc2)(c2ccccc2)c2ccccc2)(c2ccccc2)c2ccccc2)cc1
TGI [7]: > 100 µM
TGI [8]: > 100 µM
TGI [3]: > 100 µM
TGI [9]: > 100 µM
TGI [10]: > 100 µM
TGI [4]: > 100 µM
TGI [5]: > 100 µM
TGI [6]: > 100 µM

CS(=O)(=O)Nc1cncc(-c2ccc3ncnc(Nc4ccc(F)c(Cl)c4)c3c2)c1
GI50 [7]: 2.25 µM
TGI [7]: 15.2 µM
GI50 [8]: 1.07 µM
TGI [8]: 4.38 µM
GI50 [3]: 3.49 µM
TGI [3]: 13.3 µM
GI50 [9]: 3.92 µM
TGI [9]: 17 µM
GI50 [10]: 15.4 µM
TGI [10]: 60 µM
GI50 [4]: 1.58 µM
TGI [4]: 7.19 µM
GI50 [5]: 2.4 µM
TGI [5]: 22 µM
GI50 [6]: 2.79 µM
TGI [6]: 13 µM

CC1=Nc2ccccc2S/C1=C(/C)NNS(=O)(=O)c1ccc(C)cc1
TGI [1]: > 100 µM
TGI [2]: > 100 µM
TGI [3]: > 100 µM
TGI [4]: > 100 µM
TGI [5]: > 100 µM
TGI [6]: > 100 µM

COc1ccc2c(c1)/C(=C\c1c(-c3cc(OC)ccc3OC)nc3sc(C)cn13)C(=O)N2C
GI50 [7]: 56.9 µM
TGI [7]: > 100 µM
GI50 [8]: 48.9 µM
TGI [8]: > 100 µM
GI50 [3]: 37.7 µM
TGI [3]: > 100 µM
GI50 [9]: 26.5 µM
TGI [9]: 79.9 µM
GI50 [10]: 27.4 µM
TGI [10]: > 100 µM
GI50 [4]: 15.6 µM
TGI [4]: 54.5 µM
GI50 [5]: 55.7 µM
TGI [5]: > 100 µM
GI50 [6]: 13.1 µM
TGI [6]: 35.8 µM

O=c1[nH]c2ccccc2c2ccccc12
GI50 [7]: > 100 µM
TGI [7]: > 100 µM
GI50 [8]: > 100 µM
TGI [8]: > 100 µM
GI50 [3]: > 100 µM
TGI [3]: > 100 µM
GI50 [9]: > 100 µM
TGI [9]: > 100 µM
GI50 [10]: > 100 µM
TGI [10]: > 100 µM
GI50 [4]: > 100 µM
TGI [4]: > 100 µM
GI50 [5]: > 100 µM
TGI [5]: > 100 µM
GI50 [6]: > 100 µM
TGI [6]: > 100 µM

CN1C(=O)CCC1(O)C1C=CC=CC1 (centres undefined)
TGI [1]: > 100 µM
TGI [2]: > 100 µM
TGI [3]: > 100 µM
TGI [4]: > 100 µM
TGI [5]: > 100 µM
TGI [6]: > 100 µM

COc1ccc(/C=C/C(=O)c2cc(OC)c(OC)c(OC)c2)cc1OCC(=O)Nc1nc2ccc(OC(F)(F)F)cc2s1
GI50 [7]: 1.56 µM
TGI [7]: 4.55 µM
GI50 [8]: 3.08 µM
TGI [8]: > 100 µM
GI50 [3]: 1.51 µM
TGI [3]: 4.19 µM
GI50 [9]: 0.3 µM
TGI [9]: 1.08 µM
GI50 [10]: 0.492 µM
TGI [10]: 2.31 µM
GI50 [4]: 1.52 µM
TGI [4]: 3.14 µM
GI50 [5]: 4.76 µM
TGI [5]: 31.2 µM
GI50 [6]: 2.21 µM
TGI [6]: 6.09 µM

Cc1cn(C2CC(O)C(COC(=O)c3ccccc3)O2)c(=O)[nH]c1=O (centres undefined)
TGI [2]: > 100 µM
TGI [3]: > 100 µM
TGI [4]: > 100 µM
TGI [5]: > 100 µM
TGI [6]: > 100 µM

CC(=O)OCC1OC(n2cc(F)c(=O)[nH]c2=O)C(NC(=O)N(CCCl)N=O)C(OC(C)=O)C1OC(C)=O (centres undefined)
TGI [1]: > 100 µM
TGI [2]: > 100 µM
TGI [3]: > 100 µM
TGI [4]: > 100 µM
TGI [6]: > 100 µM

COc1cc(/C=C\c2cc(OC)c(OC)c(OC)c2)cc(N/C=C\C(=O)c2ccc(OC(F)(F)F)cc2)c1OC
GI50 [7]: 4.11 µM
TGI [7]: > 100 µM
GI50 [8]: 6.44 µM
TGI [8]: > 100 µM
GI50 [3]: 3.69 µM
TGI [3]: > 100 µM
GI50 [9]: 1.84 µM
TGI [9]: 5.52 µM
GI50 [10]: 3.04 µM
TGI [10]: 9.85 µM
GI50 [4]: 3.48 µM
TGI [4]: 10.6 µM
GI50 [5]: 8.2 µM
TGI [5]: > 100 µM
GI50 [6]: 4.12 µM
TGI [6]: 30.9 µM

C/C(=N\NC(=S)N1CCCCC1)c1ccccn1
GI50 [7]: 0.236 µM
TGI [7]: 5.67 µM
GI50 [8]: 0.142 µM
GI50 [3]: 0.0634 µM
TGI [3]: 4.72 µM
GI50 [9]: 0.208 µM
TGI [9]: 5.89 µM
GI50 [10]: < 0.01 µM
TGI [10]: 6.77 µM
GI50 [4]: < 0.01 µM
TGI [4]: 1.69 µM
GI50 [5]: 0.054 µM
TGI [5]: 13.7 µM
GI50 [6]: < 0.0115 µM
TGI [6]: 4.5 µM

O=C(Oc1cccc2cccnc12)c1cc2c(cc1Cl)SC(N(c1ccc(F)cc1)S(=O)(=O)c1ccc(Br)s1)=NS2(=O)=O
GI50 [7]: 27.3 µM
TGI [7]: > 100 µM
GI50 [8]: 38.9 µM
TGI [8]: > 100 µM
GI50 [3]: 44.2 µM
TGI [3]: > 100 µM
GI50 [9]: 26 µM
TGI [9]: > 100 µM
GI50 [10]: 18.2 µM
TGI [10]: 66.4 µM
GI50 [4]: 8.16 µM
TGI [4]: 66.4 µM
GI50 [5]: 26.6 µM
TGI [5]: 94.3 µM
GI50 [6]: 22.4 µM
TGI [6]: 69.7 µM

COc1ccc(C2CC(c3cccc(Nc4ccnc5cc(Cl)ccc45)c3)=NN2C=O)cc1 (centres undefined)
GI50 [7]: 0.978 µM
TGI [7]: > 34.9 µM
GI50 [8]: 0.367 µM
TGI [8]: 16.9 µM
GI50 [3]: 0.4 µM
TGI [3]: > 36.4 µM
GI50 [9]: 0.142 µM
TGI [9]: 0.809 µM
GI50 [10]: 0.379 µM
TGI [10]: 4.92 µM
GI50 [4]: 0.383 µM
TGI [4]: 3.59 µM
GI50 [5]: 7.61 µM
TGI [5]: > 100 µM
GI50 [6]: 0.311 µM
TGI [6]: 2.57 µM
